SMILES strings stand for the structures. Values after ≈ are worked out from the molar mass of the structure shown.

The values that follow come from patent US20160168118A1, “N-(5-QUINOLIN-6-YL)PYRIDIN-3-YL) BENZSULFAMIDE DERIVATIVES, PREPARATION METHOD AND THERAPEUTIC USE THEREOF” (SECOND MILITARY MEDICAL UNIVERSITY, PLA, priority 2012, published 2016).

Data set [1] relates to A549 (human lung cancer cells). The data set is described as follows: MTT assay, A549. It counts as cell-based. The conditions noted are these: 72 h. The method, then:
(§1) 1. Sample preparation: After dissolved with DMSO (Merck), PBS (−) was added to make 1000 μg/ml solution or a uniform suspension, and then diluted with PBS (−) containing the DMSO. Doxorubicin (DOX) was used as the positive control drug.
(§2) 2. Cell Line • 1) A549 (human lung cancer cells); 2) HCT116 (human colon cancer cells); 3) HepG2 (human hepatoma cells); 4) ZR-75-30 (human breast cancer cells); 5) U87MG (human brain star glioblastoma)
(§3) DMEM+5-10% FBS+double resistant
(§4) MTT assay. 100 μl cell suspension was added at a concentration of 4˜5×10^4 cells/ml to each well of a 96-well plate, and was set at 37° C., 5% CO2 in the incubator. After 24 h, the sample solution was added, 10 μl/hole, double wells were set, 37° C., acting for 72 h at 5% CO2. […] of 5 mg/ml was added to each well, the dissolving liquid was added after acted for 4 h, 100 μl/hole, kept in the incubator, and read 570 nm OD with MK-2 automatic microplate reader after dissolution.
For orientation: Tetrazolium assays rely on reduction of a dye to a coloured formazan, in cell work by metabolically active cells.

For another data set, the target named is PI3Kα (Homo sapiens, UniProt P42336). In words: Kinase-Glo Luminescent Kinase Assay, PI3Kα. Format: biochemical. Background: Kinase-Glo reads ATP consumption through a luciferase reaction.
PI3Kα, sequence (P42336 whole entry, species assumed): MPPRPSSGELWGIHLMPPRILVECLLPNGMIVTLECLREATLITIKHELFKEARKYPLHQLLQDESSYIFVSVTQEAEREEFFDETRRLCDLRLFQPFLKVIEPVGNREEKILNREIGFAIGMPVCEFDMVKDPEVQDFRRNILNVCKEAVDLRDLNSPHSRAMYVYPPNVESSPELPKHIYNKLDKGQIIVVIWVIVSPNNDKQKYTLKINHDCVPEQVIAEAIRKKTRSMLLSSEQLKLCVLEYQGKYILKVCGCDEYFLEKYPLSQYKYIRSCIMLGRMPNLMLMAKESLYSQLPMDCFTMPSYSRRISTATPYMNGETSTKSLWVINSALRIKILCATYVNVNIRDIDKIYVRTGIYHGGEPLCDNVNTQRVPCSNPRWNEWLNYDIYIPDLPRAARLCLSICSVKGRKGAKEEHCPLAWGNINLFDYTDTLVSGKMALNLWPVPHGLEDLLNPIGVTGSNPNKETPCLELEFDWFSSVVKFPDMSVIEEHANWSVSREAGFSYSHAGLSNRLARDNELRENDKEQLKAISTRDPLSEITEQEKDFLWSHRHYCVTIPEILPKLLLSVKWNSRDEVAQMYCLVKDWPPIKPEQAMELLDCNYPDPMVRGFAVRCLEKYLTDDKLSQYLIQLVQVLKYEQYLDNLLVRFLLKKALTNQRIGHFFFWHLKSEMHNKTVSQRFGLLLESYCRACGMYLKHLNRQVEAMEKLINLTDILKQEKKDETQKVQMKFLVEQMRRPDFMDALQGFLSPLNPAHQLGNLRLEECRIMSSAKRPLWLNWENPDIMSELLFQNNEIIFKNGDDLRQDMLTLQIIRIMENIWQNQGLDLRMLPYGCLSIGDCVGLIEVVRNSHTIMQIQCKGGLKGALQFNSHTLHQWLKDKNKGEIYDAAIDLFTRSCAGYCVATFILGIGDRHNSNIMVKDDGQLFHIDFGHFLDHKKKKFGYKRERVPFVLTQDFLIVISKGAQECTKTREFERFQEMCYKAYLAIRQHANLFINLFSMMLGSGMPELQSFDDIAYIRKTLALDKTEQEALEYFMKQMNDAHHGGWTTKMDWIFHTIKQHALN
PI3Kα, sequence (P27986 whole entry partner, species assumed): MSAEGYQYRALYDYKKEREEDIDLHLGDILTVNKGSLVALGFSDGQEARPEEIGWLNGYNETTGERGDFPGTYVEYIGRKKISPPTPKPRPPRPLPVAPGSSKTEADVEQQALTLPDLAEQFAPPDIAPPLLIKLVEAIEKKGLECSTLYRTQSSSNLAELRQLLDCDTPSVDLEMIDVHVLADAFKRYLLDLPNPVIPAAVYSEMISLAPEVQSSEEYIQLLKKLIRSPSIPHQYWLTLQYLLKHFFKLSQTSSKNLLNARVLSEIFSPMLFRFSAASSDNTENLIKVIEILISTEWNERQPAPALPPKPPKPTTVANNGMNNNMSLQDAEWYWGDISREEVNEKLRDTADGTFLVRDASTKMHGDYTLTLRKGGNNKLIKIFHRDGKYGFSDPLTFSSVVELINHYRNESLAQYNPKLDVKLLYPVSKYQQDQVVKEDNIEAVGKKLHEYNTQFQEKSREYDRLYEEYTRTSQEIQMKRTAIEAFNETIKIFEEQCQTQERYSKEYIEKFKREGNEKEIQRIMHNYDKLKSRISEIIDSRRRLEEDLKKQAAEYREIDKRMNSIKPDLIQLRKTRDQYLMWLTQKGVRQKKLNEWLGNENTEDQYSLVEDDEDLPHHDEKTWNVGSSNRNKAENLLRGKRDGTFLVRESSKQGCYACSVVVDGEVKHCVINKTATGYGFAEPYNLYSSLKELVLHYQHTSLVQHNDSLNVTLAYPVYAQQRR
The test system of data set [2] is HCT116 (human colon cancer cells). In words: MTT assay, HCT116. The conditions noted are these: HCT-116, 72 h. It counts as cell-based.
Data set [3] relates to HepG2 (human hepatoma cells). The data set is described as follows: MTT assay, HepG2. It counts as cell-based. The following applies: 72 h. How it is done:
as §1, §2, §3, §4

On to `COc1ncc(-c2ccc3nccc(-c4ccc(Cn5cncn5)cc4)c3c2)cc1NS(=O)(=O)c1ccc(F)cc1` [Compound 34, N-(5-(4-(4-((1H-1,2,4-triazole-1-yl)methyl)phenyl)quinolin-6-yl)-2-methoxypyridine-3-yl)-4-fluorobenzenesulfonamide], for which the melting point – broadly, the temperature, or range, at which the solid turns liquid – lay in the range of 150 to 152 °C. Also, the midpoint of inhibition in data set [1], the IC50, lay at 0.28 µg/mL (≈ 0.494 µM). On PI3Kα, half-maximal inhibition (IC50) was put at 0.91 nM. In data set [2], the IC50 (commonly the midpoint of a concentration-inhibition curve) is 1.15 µg/mL (≈ 2.03 µM). Besides, the IC50 in data set [3] is 7.18 µg/mL (≈ 12.7 µM).

As for `CN(C)Cc1ccc(-c2ccnc3ccc(-c4cnc(Cl)c(NS(=O)(=O)c5ccc(F)cc5F)c4)cc23)cc1` [Compound 32, N-(5-(4-(4-((dimethylamine)methyl)phenyl)quinolin-6-yl)-2-chlorinepyridin-3-yl)-2,4-difluorobenzenesulfonamide], the melting point was 160 to 164 °C. This compound returned an IC50 in data set [1] of 2.12 µg/mL (≈ 3.75 µM). At PI3Kα, the IC50 amounted to 0.69 nM. In addition, in data set [2], the IC50 was determined as 1.03 µg/mL (≈ 1.82 µM). Moreover, it took 2.18 µg/mL (≈ 3.86 µM) to reach half-maximal inhibition in data set [3] (IC50).

Compound `CN(CCO)Cc1ccc(-c2ccnc3ccc(-c4cnc(Cl)c(NS(=O)(=O)c5ccc(F)cc5F)c4)cc23)cc1` [Compound 37, N-(5-(4-(4-(((2-hydroxyethyl)(methyl)amino)methyl)phenyl)quinolin-6-yl)-2-chlorinepyridin-3-yl)-2,4-difluorobenzenesulfonamide] yielded a melting point of 132 to 135 °C. In addition, it took 1.08 µg/mL (≈ 1.81 µM) to reach half-maximal inhibition in data set [1] (IC50). Half-maximal inhibition against PI3Kα (IC50) required 0.75 nM. This compound also came in with a half-inhibitory concentration (IC50) in data set [2] of 1.89 µg/mL (≈ 3.18 µM). For the same compound, the half-inhibitory concentration (IC50) in data set [3] amounted to 1.71 µg/mL (≈ 2.87 µM).

Regarding `COc1ncc(-c2ccc3nccc(-n4cncn4)c3c2)cc1NS(=O)(=O)c1ccc(F)cc1` [Compound 25, N-(5-(4-(1H-1,2,4-triazole-1-yl)quinolin-6-yl)-2-methoxypyridine-3-yl)-4-fluorobenzenesulfonamide], the melting point was 122 to 124 °C. In data set [1], this compound came in with an IC50 of 1.02 µg/mL (≈ 2.14 µM). Further, the concentration for half-maximal inhibition (IC50) against PI3Kα was found to be 1.2 nM. In addition, the concentration for half-maximal inhibition (IC50) in data set [2] is 1.04 µg/mL (≈ 2.18 µM). Further, inhibition in data set [3] was half-maximal at 9.49 µg/mL (≈ 19.9 µM) (IC50).

For `O=S(=O)(Nc1cc(-c2ccc3nccc(-n4cncn4)c3c2)cnc1Cl)c1ccc(F)cc1F` [Compound 26, N-(5-(4-(1H-1,2,4-triazole-1-yl)quinolin-6-yl)-2-chlorinepyridin-3-yl)-2,4-difluorobenzenesulfonamide], the melting point lay in the range of 118 to 121 °C. In data set [1], the IC50 amounted to 2.35 µg/mL (≈ 4.71 µM). In addition, the midpoint of inhibition against PI3Kα, the IC50, lay at 0.59 nM. This compound registered a concentration for half-maximal inhibition (IC50) in data set [2] of 1.23 µg/mL (≈ 2.47 µM). Further, in data set [3], 2.8 µg/mL (≈ 5.61 µM) corresponded to half-maximal inhibition (IC50).

`COc1ncc(-c2ccc3nccc(-c4ccc(CN(C)C)cc4)c3c2)cc1NS(=O)(=O)c1ccc(F)cc1` [Compound 31, N-(5-(4-(4-((dimethylamine)methyl)phenyl)quinolin-6-yl)-2-methoxypyridine-3-yl)-4-fluorobenzenesulfonamide] displayed a melting point of 150 to 152 °C. Besides, in data set [1], inhibition was half-maximal at 0.2 µg/mL (≈ 0.369 µM) (IC50). Also, on PI3Kα, it took 2.1 nM to reach half-maximal inhibition (IC50). This compound displayed an IC50 in data set [2] of 1.02 µg/mL (≈ 1.88 µM). Further, it took 1.64 µg/mL (≈ 3.02 µM) to reach half-maximal inhibition in data set [3] (IC50).

In the case of `CN(CCO)Cc1ccc(-c2ccnc3ccc(-c4cnc(Cl)c(NS(=O)(=O)c5ccc(F)cc5)c4)cc23)cc1` [Compound 36, N-(5-(4-(4-(((2-hydroxyethyl)(methyl)amino)methyl)phenyl)quinolin-6-yl)-2-chlorinepyridin-3-yl)-4-fluorobenzenesulfonamide], the melting point was in the range of 214 to 217 °C. It took 0.13 µg/mL (≈ 0.225 µM) to reach half-maximal inhibition in data set [1] (IC50). For the same compound, inhibition at PI3Kα was half-maximal at 1 nM (IC50). In data set [2], this compound returned an IC50 of 1.06 µg/mL (≈ 1.84 µM). The compound also had a half-inhibitory concentration (IC50) in data set [3] of 1.1 µg/mL (≈ 1.91 µM).

Turning to `O=S(=O)(Nc1cc(-c2ccc3nccc(-c4ccc(Cn5cncn5)cc4)c3c2)cnc1Cl)c1ccc(F)cc1` [Compound 33, N-(5-(4-(4-((1H-1,2,4-triazole-1-yl)methyl)phenyl)quinolin-6-yl)-2-chlorinepyridin-3-yl)-4-fluorobenzenesulfonamide], the melting point was 235 to 236 °C. This compound came in with a concentration for half-maximal inhibition (IC50) in data set [1] of 1.52 µg/mL (≈ 2.66 µM). This compound had a half-maximal inhibitory concentration (IC50) against PI3Kα of 0.73 nM. This compound came in with an IC50 in data set [2] of 1.43 µg/mL (≈ 2.5 µM). Besides, in data set [3], the midpoint of inhibition, the IC50, lay at 5.47 µg/mL (≈ 9.58 µM).
